Laboratory results from the NIST ThermoML archive (doi:10.1016/j.jct.2013.07.003).

How the values were obtained:
[1] = refractive index (Na D-line) (dimensionless); xn = mol fraction of the nth substance listed; settings: 101 kPa, Liquid, Standard Abbe refractometry
[2] = relative permittivity at various frequencies (dimensionless); xn = mol fraction of the nth substance listed; settings: 101 kPa, Liquid, Frequency=0.1 MHz, Coaxial cylinder capacitor

CC(O)CCO (stereo not given) [1,3-butanediol] + C1COCCO1
Settings	refractive index, 298.2 K	refractive index, 303.2 K	refractive index, 308.2 K	refractive index, 313.2 K	refractive index, 318.2 K	relative permittivity, 298.2 K	relative permittivity, 303.2 K	relative permittivity, 308.2 K	relative permittivity, 313.2 K	relative permittivity, 318.2 K
[1], x1 = 0.103	1.4217	1.4195	1.4165	1.414	1.4112	–	–	–	–	–
[1], x1 = 0.204	1.4235	1.4213	1.4183	1.4161	1.4136	–	–	–	–	–
[1], x1 = 0.301	1.425	1.423	1.4202	1.418	1.4155	–	–	–	–	–
[1], x1 = 0.401	1.4268	1.425	1.4222	1.4202	1.4177	–	–	–	–	–
[1], x1 = 0.451	1.4279	1.4258	1.4233	1.4213	1.419	–	–	–	–	–
[1], x1 = 0.5	1.4287	1.4267	1.4243	1.4222	1.42	–	–	–	–	–
[1], x1 = 0.548	1.4296	1.4275	1.4255	1.423	1.4209	–	–	–	–	–
[1], x1 = 0.61	1.431	1.4285	1.4262	1.4242	1.4221	–	–	–	–	–
[1], x1 = 0.699	1.4325	1.4308	1.4285	1.4267	1.4247	–	–	–	–	–
[1], x1 = 0.788	1.4342	1.4326	1.4303	1.4287	1.4269	–	–	–	–	–
[1], x1 = 0.897	1.4363	1.4348	1.4333	1.4314	1.4297	–	–	–	–	–
[1], x1 = 0.951	1.4374	1.4361	1.4347	1.4329	1.4313	–	–	–	–	–
[1], x1 = 1	1.4384	1.4371	1.4356	1.4341	1.4328	–	–	–	–	–
[2], x1 = 0.103	–	–	–	–	–	3.36	3.34	3.32	3.3	3.28
[2], x1 = 0.204	–	–	–	–	–	4.91	4.85	4.79	4.72	4.67
[2], x1 = 0.301	–	–	–	–	–	6.73	6.64	6.54	6.45	6.38
[2], x1 = 0.401	–	–	–	–	–	8.96	8.82	8.66	8.52	8.38
[2], x1 = 0.451	–	–	–	–	–	10.17	10	9.83	9.67	9.5
[2], x1 = 0.5	–	–	–	–	–	11.44	11.23	11.02	10.85	10.61
[2], x1 = 0.548	–	–	–	–	–	12.76	12.5	12.25	12.03	11.77
[2], x1 = 0.61	–	–	–	–	–	14.6	14.3	13.94	13.63	13.3
[2], x1 = 0.699	–	–	–	–	–	17.46	17.03	16.58	16.15	15.73
[2], x1 = 0.788	–	–	–	–	–	20.41	19.88	19.36	18.88	18.38
[2], x1 = 0.897	–	–	–	–	–	24.35	23.72	23.02	22.41	21.79
[2], x1 = 0.951	–	–	–	–	–	26.42	25.72	24.98	24.29	23.61
[2], x1 = 1	–	–	–	–	–	28.52	27.66	26.77	25.98	25.22
